Patent publication US20260070917A1, “CYCLIN DEPENDENT KINASE DEGRADERS AND METHODS OF USE THEREOF” (Differentiated Therapeutics Inc, priority 2023, published 2026)

What was measured:
Assay type in all cases: cell-based
CDK9 = molecular target: T1, CDK9 (Homo sapiens, UniProt P50750); experiment: HiBit Assay Protocol for CDK9 (HIBIT protein quantification, degradation); settings: 6 h, HEK293-CDK9-Hibit cells, compound treatment for 6 hours; read-out: CDK9 HIBIT Protein Quantification Maximum
T1 construct: host or cells: HEK293-CDK9-Hibit
In short: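 Degradation read-out: luminescence after lytic HiBiT/LgBiT detection in HEK293-CDK9-HiBiT cells exposed 6 h to 10-point, 3-fold compound dilutions. Signal scaled between 0.1% DMSO-treated cells and medium alone; DC50 fitted from the curve.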

CCNE1 = molecular target: T2, CCNE1 (Homo sapiens, UniProt P24864); experiment: HiBit Assay Protocol for CCNE1 (HIBIT protein quantification, degradation); settings: HEK293-CCNE1-Hibit cells, compound treatment for 6 hours
T2 construct: host or cells: HEK293-CCNE1-Hibit
In short: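 Degradation readout: lytic Nano-Glo HiBiT luminescence after 6 h exposure of HEK293-CCNE1-HiBiT cells to 10-point, 3-fold serial dilutions. Signal was scaled between medium-only and DMSO-treated wells, and DC50 came from curve fits.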

CDK2 = molecular target: T3, CDK2 (Homo sapiens, UniProt P24941); experiment: HiBit Assay Protocol for CDK2 (HIBIT protein quantification, degradation); settings: HEK293-CDK2-Hibit cells, compound treatment for 6 hours; for DC50: ABS DC50
T3 construct: host or cells: HEK293-CDK2-Hibit
In short: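 DC50 comes from a fitted curve of remaining CDK2-HiBiT luminescence, referenced to DMSO-treated cells and medium-only wells. HEK293-CDK2-HiBiT cells, plated the previous night, received compounds in a 10-point, 3-fold series for 6 h before lysis with LgBiT-containing Nano-Glo HiBiT reagent.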

T2 sequence (P24864 whole entry): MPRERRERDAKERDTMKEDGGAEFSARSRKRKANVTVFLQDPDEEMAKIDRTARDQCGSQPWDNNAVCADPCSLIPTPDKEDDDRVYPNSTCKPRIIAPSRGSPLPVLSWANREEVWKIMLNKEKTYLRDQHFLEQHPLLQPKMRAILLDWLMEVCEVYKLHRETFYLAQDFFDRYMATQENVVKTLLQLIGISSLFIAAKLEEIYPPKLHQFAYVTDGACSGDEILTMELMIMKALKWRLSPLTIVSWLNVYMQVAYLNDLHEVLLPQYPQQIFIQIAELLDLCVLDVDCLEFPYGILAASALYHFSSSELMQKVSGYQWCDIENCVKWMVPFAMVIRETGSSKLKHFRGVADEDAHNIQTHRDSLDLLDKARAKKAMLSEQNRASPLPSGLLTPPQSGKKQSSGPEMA
T1 sequence (P50750 whole entry): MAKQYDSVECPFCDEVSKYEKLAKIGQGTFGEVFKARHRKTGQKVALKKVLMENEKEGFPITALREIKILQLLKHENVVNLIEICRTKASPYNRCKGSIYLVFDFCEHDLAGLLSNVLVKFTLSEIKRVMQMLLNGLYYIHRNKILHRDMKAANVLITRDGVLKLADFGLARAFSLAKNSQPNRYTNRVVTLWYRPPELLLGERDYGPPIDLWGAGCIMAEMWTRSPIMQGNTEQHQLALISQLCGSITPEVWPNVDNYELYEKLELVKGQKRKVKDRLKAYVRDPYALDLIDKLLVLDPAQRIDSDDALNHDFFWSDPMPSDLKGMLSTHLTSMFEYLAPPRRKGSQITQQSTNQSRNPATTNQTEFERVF

Structure (SMILES) | Dmax (CDK9) [%] | CCNE1 HIBIT Protein Quantification Maximum (CCNE1) [%] | CDK2 HIBIT Protein Quantification Maximum (CDK2) [%] | DC50 (CDK2) [nM]
Cn1c(=O)n(C2CCC(=O)NC2=O)c2ccc(N3CCN(Cc4cccc(S(=O)(=O)N5CCC(Nc6ncc7c(n6)N([C@@H]6CCC[C@@H](O)C6)C(=O)C76CC6)CC5)c4)CC3)cc21 (stereo partly drawn) [Compound 179, 3-[5-(4-{[3-(4-{7′-[(1R,3R)-3-Hydroxycyclohexyl]-6′-oxospiro[cyclopropane-1,5′-pyrrolo[2,3-d]pyrimidin]-2′-ylamino}piperidin-1-ylsulfonyl)phenyl]methyl}piperazin-1-yl)-3-methyl-2-oxo-1,3-benzodiazol-1-yl]piperidine-2,6-dione] | 15 | 20 | 78 | 7.82
Cn1nc(N2CCC(=O)NC2=O)c2ccc(C3CCN(Cc4cccc(S(=O)(=O)N5CCC(Nc6ncc7c(n6)N([C@@H]6CCC[C@@H](O)C6)C(=O)C76CC6)CC5)c4)CC3F)cc21 (stereo partly drawn) [Compound 180, 1-[6-(3-Fluoro-1-{[3-(4-{7′-[(1R,3R)-3-hydroxycyclohexyl]-6′-oxospiro[cyclopropane-1,5′-pyrrolo[2,3-d]pyrimidin]-2′-ylamino}piperidin-1-ylsulfonyl)phenyl]methyl}piperidin-4-yl)-1-methylindazol-3-yl]-1,3-diazinane-2,4-dione] | 34 | 48 | 85 | 7.18
Cn1c(=O)n(C2CCC(=O)NC2=O)c2cccc(N3CCN(Cc4cccc(S(=O)(=O)N5CCC(Nc6ncc7c(n6)N([C@@H]6CCC[C@@H](O)C6)C(=O)C76CC6)CC5)c4)CC3)c21 (stereo partly drawn) [Compound 181, 3-[4-(4-{[3-(4-{7′-[(1R,3R)-3-hydroxycyclohexyl]-6′-oxospiro[cyclopropane-1,5′-pyrrolo[2,3-d]pyrimidin]-2′-ylamino}piperidin-1-ylsulfonyl)phenyl]methyl}piperazin-1-yl)-3-methyl-2-oxo-1,3-benzodiazol-1-yl]piperidine-2,6-dione] | 11 | 38 | 77 | 6.02
Cn1nc(N2CCC(=O)NC2=O)c2ccc(C3CCN(Cc4cccc(S(=O)(=O)N5CCC(Nc6ncc7c(n6)N([C@@H]6CCC[C@@H](O)C6)C(=O)C76CC6)CC5)c4)C(C)(C)C3)cc21 (stereo partly drawn) [Compound 183, 1-[6-(1-{[3-(4-{7′-[(1R,3R)-3-Hydroxycyclohexyl]-6′-oxospiro[cyclopropane-1,5′-pyrrolo[2,3-d]pyrimidin]-2′-ylamino}piperidin-1-ylsulfonyl)phenyl]methyl}-2,2-dimethylpiperidin-4-yl)-1-methylindazol-3-yl]-1,3-diazinane-2,4-dione] | 24 | 43 | 67 | 2.84
Cn1nc(N2CCC(=O)NC2=O)c2ccc(N3CCN(Cc4cccc(S(=O)(=O)N5CCC(Nc6ncc7c(n6)N([C@@H]6CCC[C@@H](O)C6)C(=O)C76CC6)CC5)c4)CC3)cc21 [Compound 184] | 22 | 43 | 90 | 5.47
CC1CN(Cc2cccc(S(=O)(=O)N3CCC(Nc4ncc5c(n4)N([C@@H]4CCC[C@@H](O)C4)C(=O)C54CC4)CC3)c2)CCN1c1ccc2c(N3CCC(=O)NC3=O)nn(C)c2c1 (some centres unmarked) [Compound 185] | 5 | 36 | 84 | 6.77
Cn1nc(N2CCC(=O)NC2=O)c2ccc(C3CCN(CC4CCCN(S(=O)(=O)N5CCC(Nc6ncc7c(n6)N([C@@H]6CCC[C@@H](O)C6)C(=O)C76CC6)CC5)C4)CC3)cc21 (stereo partly drawn) [Compound 186, 1-[6-(1-{[1-(4-{7′-[(1R,3R)-3-Hydroxycyclohexyl]-6′-oxospiro[cyclopropane-1,5′-pyrrolo[2,3-d]pyrimidin]-2′-ylamino}piperidin-1-ylsulfonyl)piperidin-3-yl]methyl}piperidin-4-yl)-1-methylindazol-3-yl]-1,3-diazinane-2,4-dione] | 27 | 43 | 62 | 2.82
CC(c1cccc(S(=O)(=O)N2CC[C@H](Nc3ncc4c(n3)N([C@@H]3CCC[C@@H](O)C3)C(=O)C43CC3)[C@H](F)C2)c1)N1CCN(c2ccc3c(N4CCC(=O)NC4=O)nn(C)c3c2)CC1 (some centres unmarked) [Compound 187] | 11 | 45 | 91 | 4.32
CC(c1cccc(S(=O)(=O)N2CC[C@H](Nc3ncc4c(n3)N([C@@H]3CCC[C@@H](O)C3)C(=O)C43CC3)[C@H](F)C2)c1)N1CCC(c2ccc3c(N4CCC(=O)NC4=O)nn(C)c3c2)CC1 (some centres unmarked) [Compound 188] | 24 | 45 | 85 | 1.92
C[C@@H]1CN(c2ccc3c(N4CCC(=O)NC4=O)nn(C)c3c2)CCN1[C@H](C)c1cccc(S(=O)(=O)N2CC[C@H](Nc3ncc4c(n3)N([C@@H]3CCC[C@@H](O)C3)C(=O)C43CC3)[C@H](F)C2)c1 [Compound 191, 1-(6-((R)-4-((R)-1-(3-(((3R,4S)-3-Fluoro-4-((7′-((1R,3R)-3-hydroxycyclohexyl)-6′-oxo-6′,7′-dihydrospiro[cyclopropane-1,5′-pyrrolo[2,3-d]pyrimidin]-2′-yl)amino)piperidin-1-yl)sulfonyl)phenyl)ethyl)-3-methylpiperazin-1-yl)-1-methyl-1H-indazol-3-yl)dihydropyrimidine-2,4(1H,3H)-dione] | 9 | 48 | 90 | 21.9
C[C@@H]1CN(c2ccc3c(N4CCC(=O)NC4=O)nn(C)c3c2)CCN1[C@@H](C)c1cccc(S(=O)(=O)N2CC[C@H](Nc3ncc4c(n3)N([C@@H]3CCC[C@@H](O)C3)C(=O)C43CC3)[C@H](F)C2)c1 [Compound 192, 1-(6-((R)-4-((S)-1-(3-(((3R,4S)-3-Fluoro-4-((7′-((1R,3R)-3-hydroxycyclohexyl)-6′-oxo-6′,7′-dihydrospiro[cyclopropane-1,5′-pyrrolo[2,3-d]pyrimidin]-2′-yl)amino)piperidin-1-yl)sulfonyl)phenyl)ethyl)-3-methylpiperazin-1-yl)-1-methyl-1H-indazol-3-yl)dihydropyrimidine-2,4(1H,3H)-dione] | 16 | 45 | 92 | 4.67
CC(c1cccc(S(=O)(=O)N2CC[C@H](Nc3ncc4c(n3)N([C@@H]3CCC[C@@H](O)C3)C(=O)C43CC3)[C@H](F)C2)c1)N1CCN(c2ccc3c(N4CCC(=O)NC4=O)nn(C)c3c2)C[C@H]1C (stereo partly drawn) [Compound 195, 1-(6-((3R)-4-(1-(3-(((3R,4S)-3-Fluoro-4-((7′-((1R,3R)-3-hydroxycyclohexyl)-6′-oxo-6′,7′-dihydrospiro[cyclopropane-1,5′-pyrrolo[2,3-d]pyrimidin]-2′-yl)amino)piperidin-1-yl)sulfonyl)phenyl)ethyl)-3-methylpiperazin-1-yl)-1-methyl-1H-indazol-3-yl)dihydropyrimidine-2,4(1H,3H)-dione] | 21 | 41 | 92 | 5.54
C[C@H](c1cccc(S(=O)(=O)N2CC[C@H](Nc3ncc4c(n3)N([C@@H]3CCC[C@@H](O)C3)C(=O)C43CC3)[C@H](F)C2)c1)N1CCN(c2ccc3c(N4CCC(=O)NC4=O)nn(C)c3c2)CC1 [Compound 196] | 14 | 36 | 93 | 12
C[C@@H](c1cccc(S(=O)(=O)N2CC[C@H](Nc3ncc4c(n3)N([C@@H]3CCC[C@@H](O)C3)C(=O)C43CC3)[C@H](F)C2)c1)N1CCN(c2ccc3c(N4CCC(=O)NC4=O)nn(C)c3c2)CC1 [Compound 197] | 8 | 33 | 91 | 10.5
C[C@H](c1cccc(S(=O)(=O)N2CC[C@H](Nc3ncc4c(n3)N([C@@H]3CCC[C@@H](O)C3)C(=O)C43CC3)[C@H](F)C2)c1)N1CCC(c2ccc3c(N4CCC(=O)NC4=O)nn(C)c3c2)CC1 [Compound 198] | 2 | 40 | 80 | 2.48
CC(C)[C@@H]1CN([C@H](C)c2cccc(S(=O)(=O)N3CC[C@H](Nc4ncc5c(n4)N([C@@H]4CCC[C@@H](O)C4)C(=O)C54CC4)[C@H](F)C3)c2)CCN1c1ccc2c(N3CCC(=O)NC3=O)nn(C)c2c1 [Compound 204] | 15 | 33 | 85 | 10.4
CC(C)[C@@H]1CN([C@@H](C)c2cccc(S(=O)(=O)N3CC[C@H](Nc4ncc5c(n4)N([C@@H]4CCC[C@@H](O)C4)C(=O)C54CC4)[C@H](F)C3)c2)CCN1c1ccc2c(N3CCC(=O)NC3=O)nn(C)c2c1 [Compound 205] | 14 | 38 | 88 | 13.1
